Data reported in ChEMBL document CHEMBL5352419, “Design, synthesis, and biological evaluation of tetrahydroquinoline amphiphiles as membrane-targeting antimicrobials against pathogenic bacteria and fungi” (Eur J Med Chem, 2022).
Converted amounts (≈) assume the structure as drawn. The source made the active and inactive calls. The calls are words filed in the database; no cut-off is given here.

Tests used:
Cell membrane [1] = test: Disruption of membrane integrity in Staphylococcus aureus ATCC29213 assessed as increase in fluorescence intensity at 1 to 8 times of MIC measured for 1 hr by SYTOX green dye based fluorescence analysis
Acinetobacter baumannii [2] = test: Antimicrobial activity against Acinetobacter baumannii ATCC17978 assessed as bacterial growth inhibition incubated for 24 hrs in presence of 175.5 ug/mL K+ by Muller Hinton broth based dilution assay; format: functional
Escherichia coli [3] = test: Antimicrobial activity against Escherichia coli ATCC25922 assessed as bacterial killing at 1 to 8 times of MIC measured upto 24 hrs by time-kill kinetics assay; format: functional, organism-based
Acinetobacter baumannii [4] = test: Antimicrobial activity against Acinetobacter baumannii ATCC17978 assessed as bacterial growth inhibition incubated for 24 hrs by Muller Hinton broth based dilution assay; format: functional
Escherichia coli [5] = test: Antibiofilm activity against Escherichia coli ATCC25922 assessed as inhibition of biofilm formation at 0.39 ug/mL incubated for 24 hrs by crystal violet staining based analysis relative to control; format: functional
Escherichia coli [6] = test: Antibiofilm activity against Escherichia coli ATCC25922 assessed as inhibition of biofilm formation at 6.25 ug/mL incubated for 24 hrs by crystal violet staining based analysis relative to control; format: functional
Candida albicans [7] = test: Antimicrobial activity against Candida albicans CMCC98001 assessed as fungal growth inhibition incubated for 48 hrs in presence of 100 ug/mL Ca2+ by Sabouraud Dextrose broth based dilution assay; format: functional
Candida albicans [8] = test: Antimicrobial activity against Candida albicans ATCC10231 assessed as fungal growth inhibition incubated for 48 hrs in presence of 24.3 ug/mL Mg2+ by Sabouraud Dextrose broth based dilution assay; format: functional
Escherichia coli [9] = test: Antibiofilm activity against Escherichia coli ATCC25922 assessed as inhibition of biofilm formation at 3.125 ug/mL incubated for 24 hrs by crystal violet staining based analysis relative to control; format: functional
Escherichia coli [10] = test: Antibiofilm activity against Escherichia coli ATCC25922 assessed as inhibition of biofilm formation at 0.78 ug/mL incubated for 24 hrs by crystal violet staining based analysis relative to control; format: functional
Escherichia coli [11] = test: Disruption of preformed biofilm in Escherichia coli ATCC25922 assessed as residual preformed biofilm at 12.5 ug/mL incubated for 24 hrs by crystal violet staining based analysis relative to control; format: functional; conditions: dose 12.5 µg/ml
[12] = Cytotoxicity against mouse NCTC clone 929 cells assessed as viable cells at 6.25 ug/mL incubated for 24 hrs by CCK-8 assay relative to control; format: toxicity, cell-based; conditions: NCTC clone 929 (L929) cells, at 6.25 µg/mL, read-out: Activity
Staphylococcus aureus [13] = test: In vivo antibacterial activity against Staphylococcus aureus ATCC29213 infected in cyclophosphamide immunosuppressed keratitis C57BL/6 mouse model assessed as log reduction in bacterial load at 0.5 % administered topically 4 times per day for 3 days; format: functional; conditions: time 3 day
Staphylococcus aureus [14] = test: Antimicrobial activity against Staphylococcus aureus ATCC29213 assessed as log reduction in microbial load at 8 times of MIC measured at 0.5 hr by time-kill kinetics assay; format: functional
Cell membrane [15] = test: Disruption of membrane integrity in Candida albicans ATCC10231 assessed as increase in fluorescence intensity at 1 to 8 times of MIC measured for 1 hr by SYTOX green dye based fluorescence analysis
Cell membrane [16] = test: Disruption of membrane integrity in Candida albicans ATCC10231 assessed as red fluorescence at 8 times of MIC incubated for 2 hrs under dark condition by SYTO 9 and PI staining based laser confocal microscopy analysis
Candida albicans [17] = test: Antimicrobial activity against Candida albicans ATCC10231 assessed as fungal growth inhibition incubated for 48 hrs in presence of 175.5 ug/mL K+ by Sabouraud Dextrose broth based dilution assay; format: functional
Acinetobacter baumannii [18] = test: Antimicrobial activity against Acinetobacter baumannii ATCC17978 assessed as bacterial growth inhibition incubated for 24 hrs in presence of 3220 ug/mL Na+ by Muller Hinton broth based dilution assay; format: functional
Cell membrane [19] = test: Disruption of membrane integrity in Staphylococcus aureus ATCC29213 assessed as red fluorescence at 8 times of MIC incubated for 2 hrs under dark condition by SYTO 9 and PI staining based laser confocal microscopy analysis
Candida albicans [20] = test: Antimicrobial activity against Candida albicans CMCC98001 assessed as fungal growth inhibition incubated for 48 hrs by Sabouraud Dextrose broth based dilution assay; format: functional
Escherichia coli [21] = test: Disruption of preformed biofilm in Escherichia coli ATCC25922 assessed as residual preformed biofilm at 6.25 ug/mL incubated for 24 hrs by crystal violet staining based analysis relative to control; format: functional; conditions: dose 6.25 µg/ml
Escherichia coli [22] = test: Disruption of preformed biofilm in Escherichia coli ATCC25922 assessed as residual preformed biofilm at […] ug/mL incubated for 24 hrs by crystal violet staining based analysis relative to control; format: functional; conditions: dose […] microg/ml, 1.56 ug/mL
[23] = Cytotoxicity against mouse NCTC clone 929 cells assessed as viable cells at 25 ug/mL incubated for 24 hrs by CCK-8 assay relative to control; format: toxicity, cell-based; conditions: NCTC clone 929 (L929) cells, at 25 µg/mL, read-out: Activity
Escherichia coli [24] = test: Disruption of preformed biofilm in Escherichia coli ATCC25922 assessed as residual preformed biofilm at 0.78 ug/mL incubated for 24 hrs by crystal violet staining based analysis relative to control; format: functional; conditions: dose 0.78 µg/ml
Staphylococcus aureus [25] = test: Antimicrobial activity against methicillin-resistant Staphylococcus aureus NCTC10442 assessed as bacterial growth inhibition incubated for 24 hrs in presence of 175.5 ug/mL K+ by Muller Hinton broth based dilution assay; format: functional
Staphylococcus aureus [26] = test: Antimicrobial activity against Staphylococcus aureus ATCC29213 assessed as bacterial growth inhibition incubated for 24 hrs in presence of 3220 ug/mL Na+ by Muller Hinton broth based dilution assay; format: functional
Cell membrane [27] = test: Disruption of outer membrane integrity in Acinetobacter baumannii ATCC17978
Staphylococcus aureus [28] = test: Antimicrobial activity against Staphylococcus aureus ATCC29213 assessed as bacterial killing at 1 to 8 times of MIC measured upto 24 hrs by time-kill kinetics assay; format: functional, organism-based
Staphylococcus aureus [29] = test: Antimicrobial activity against Staphylococcus aureus ATCC29213 assessed as bacterial growth inhibition incubated for 24 hrs in presence of 175.5 ug/mL K+ by Muller Hinton broth based dilution assay; format: functional
Escherichia coli [30] = test: Disruption of preformed biofilm in Escherichia coli ATCC25922 assessed as residual preformed biofilm at 25 ug/mL incubated for 24 hrs by crystal violet staining based analysis relative to control; format: functional; conditions: dose 25 µg/ml
[31] = Cytotoxicity against mouse NCTC clone 929 cells assessed as viable cells at 50 ug/mL incubated for 24 hrs by CCK-8 assay relative to control; format: toxicity, cell-based; conditions: NCTC clone 929 (L929) cells, at 50 µg/mL, read-out: Activity
Escherichia coli [32] = test: Disruption of preformed biofilm in Escherichia coli ATCC25922 assessed as residual preformed biofilm at 3.125 ug/mL incubated for 24 hrs by crystal violet staining based analysis relative to control; format: functional; conditions: dose 3.125 µg/ml
Escherichia coli [33] = test: Antimicrobial activity against Escherichia coli ATCC25922 assessed as log reduction in microbial load at 8 times of MIC measured at 0.5 hr by time-kill kinetics assay; format: functional

In the case of `CC(C)=CCN1CCCc2cc(OCCCCCCCCNC(=N)N)ccc21`, the Activity (Cell membrane [1]) is reported as “Dose-Dependent Effect”, the MIC (Acinetobacter baumannii [2]) is reported as 3.12 µg/mL and the Activity (Escherichia coli [3]) is reported as “Dose-Dependent Effect”. The MIC (Acinetobacter baumannii [4]) was 3.12 µg/mL (≈ 8.08 µM), the inhibition at 0.39 µg/mL (Escherichia coli [5]) was 13.5% and the inhibition at 6.25 µg/mL (Escherichia coli [6]) was 101%. For the same molecule, the MIC (Candida albicans [7]) was 1.56 µg/mL, the MIC (Candida albicans [8]) was 1.56 µg/mL and the inhibition at 3.125 µg/mL (Escherichia coli [9]) was 92.8%. It also gave an inhibition at 0.78 µg/mL (Escherichia coli [10]) of 32.2%, an Activity (Escherichia coli [11]) of 6.85% and a viability at 24 h, 6.25 ug/mL [12] of 91.2%. For the same molecule, the “log(activity)” value (Staphylococcus aureus [13]) was 6.3, the “log(activity)” value (Staphylococcus aureus [14]) was >3 and the Activity (Cell membrane [15]) was “Dose-Dependent Effect”. The Activity (Cell membrane [16]) was “Active”, the MIC (Candida albicans [17]) was 0.78 µg/mL and the MIC (Acinetobacter baumannii [18]) was 3.12 µg/mL. The Activity (Cell membrane [19]) was “Active”, the MIC (Candida albicans [20]) was 0.78 µg/mL (≈ 2.02 µM) and the Activity (Escherichia coli [21]) was 18.49%. It also gave an Activity (Escherichia coli [22]) of 85.82%, a viability at 24 h, 25 ug/mL [23] of 77.9% and an Activity (Escherichia coli [24]) of 96.08%. For the same molecule, the MIC (Staphylococcus aureus [25]) was 0.78 µg/mL, the MIC (Staphylococcus aureus [26]) was 0.78 µg/mL and the Activity (Cell membrane [27]) was “Active”. For the same molecule, the Activity (Staphylococcus aureus [28]) was “Dose-Dependent Effect”, the MIC (Staphylococcus aureus [29]) was 0.78 µg/mL and the Activity (Escherichia coli [30]) was 4.34%. For the same molecule, the viability at 24 h, 50 ug/mL [31] was 29.9%, the Activity (Escherichia coli [32]) was 47.23% and the “log(activity)” value (Escherichia coli [33]) was >3.
For `CCCCCCCCCN1CCCc2cc(OCCCCNC(=N)N)ccc21`, the Activity (Cell membrane [1]) was “Dose-Dependent Effect”, the MIC (Acinetobacter baumannii [2]) was 3.12 µg/mL and the Activity (Escherichia coli [3]) was “Dose-Dependent Effect”. It also gave an MIC (Acinetobacter baumannii [4]) of 1.56 µg/mL (≈ 4.01 µM), an inhibition at 0.39 µg/mL (Escherichia coli [5]) of 21.6% and an inhibition at 6.25 µg/mL (Escherichia coli [6]) of 100%. For the same molecule, the MIC (Candida albicans [7]) was 1.56 µg/mL, the MIC (Candida albicans [8]) was 1.56 µg/mL and the inhibition at 3.125 µg/mL (Escherichia coli [9]) was 96.2%. The inhibition at 0.78 µg/mL (Escherichia coli [10]) was 49.9%, the Activity (Escherichia coli [11]) was 8.81% and the viability at 24 h, 6.25 ug/mL [12] was 92.1%. The “log(activity)” value (Staphylococcus aureus [13]) was 6.6, the “log(activity)” value (Staphylococcus aureus [14]) was >3 and the Activity (Cell membrane [15]) was “Dose-Dependent Effect”. For the same molecule, the Activity (Cell membrane [16]) was “Active”, the MIC (Candida albicans [17]) was 1.56 µg/mL and the MIC (Acinetobacter baumannii [18]) was 3.12 µg/mL. The Activity (Cell membrane [19]) was “Active”, the MIC (Candida albicans [20]) was 0.78 µg/mL (≈ 2.01 µM) and the Activity (Escherichia coli [21]) was 15.34%. For the same molecule, the Activity (Escherichia coli [22]) was 72.32%, the viability at 24 h, 25 ug/mL [23] was 72.9% and the Activity (Escherichia coli [24]) was 93.41%. The MIC (Staphylococcus aureus [25]) was 0.78 µg/mL, the MIC (Staphylococcus aureus [26]) was 0.78 µg/mL and the Activity (Cell membrane [27]) was “Active”. The Activity (Staphylococcus aureus [28]) was “Dose-Dependent Effect”, the MIC (Staphylococcus aureus [29]) was 0.78 µg/mL and the Activity (Escherichia coli [30]) was 1.67%. The viability at 24 h, 50 ug/mL [31] was 23.7%, the Activity (Escherichia coli [32]) was 32.54% and the “log(activity)” value (Escherichia coli [33]) was >3.
